Key:
[1] = 1H NMR evaluation of the oxidative consumption of salivary biomolecules by ozone; details: O3 for 30 seconds; unstimulated human saliva 0.60 ml; 1H NMR 600 MHz
Excerpt: Ozone is one of nature's most powerful oxidants which accounts for its ability to kill bacteria, spores and viruses. Uniquely, ozone decomposes to a harmless, non-toxic and environmentally safe material (oxygen). In this investigation, a multicomponent evaluation of the oxidative consumption of salivary biomolecules by ozone (O3) has been performed using high resolution proton (^1H) nuclear magnetic resonance (NMR) spectroscopy. The ozone-generating equipment employed in this study was designed by Purezone Ltd. (Ipswich, U.K.). Unstimulated human saliva samples were collected from 8 patients and each of them was divided into two equivalent portions (0.60 ml). The first of these was treated with O3 generated from the above device for a period of 30 seconds; the second group of portions served as controls. Samples were subjected to ^1H NMR analysis at an operating frequency of 600 MHz. […] High field ^1H NMR spectroscopy provides much useful analytical data regarding the fate of O3 in human saliva, information which is of much relevance to its potential therapeutic actions in vivo.

[2] = test system: Microflora from Primary Root Caries; assay: Ozone effect on microflora from primary root caries ex-vivo; assay type: cell-based; details: for Mean ± SE of Total cfu (Log10): after 10 seconds of ozone treatment
Excerpt: Primary root carious lesions (PRCL) are a major clinical problem. […] An ozone producing generator (Purezone Ltd., Ipswich, U.K.) was used in this ex-vivo study assessing the use of ozone on PRCL. In this study, soft PRCL requiring restoration were used as these are the most severe type of lesion found in humans. 20 freshly extracted teeth with PRCL requiring restoration were used. After plaque removal using a hand held standard fine nylon fiber sterile toothbrush with sterile water as a lubricant to cleanse the surface, each tooth was then isolated using sterile cotton wool rolls and dried using a dry sterile cotton wool roll. […] Each sample was weighed and immediately placed in 1 ml of Fastidious Anaerobe Broth (FAB). […] They were vortexed for 30 seconds to facilitate the extraction of any micro-organisms from the carious dentine and disperse any aggregates. After decimal dilution with FAB, […] of these was spread on Fastidious Anaerobe Agar (LabM, Bury, […].) supplemented with 5% (v/V) horse blood in an anaerobic chamber at 37° C. for four days. The mean±SE number of each colony type was counted and calculated. The procedure of Example 2 was repeated except that ozonized water was applied to the lesion for 20 seconds. […] The aims of these studies were to evaluate the efficiency of ozone on primary root caries and associated micro-organisms (Streptococcus sobrinus; TH 21 Streptococcus mutans; NCTC 10449). […] In study 2, 40 sterile saliva coated glass beads were put into bijoux bottles with 3 mls of Todd Hewitt broth for control and test groups. S. sobrinus and S. mutans were inoculated and incubated anaerobically overnight. Each glass bead was washed with 2 mls of PBS. […] Subsequently, each glass bead in the test and control groups was placed in 3 mls of Todd Hewitt broth with six more sterile glass beads and were vortexed for 30 seconds. After decimal dilutions, […] were spread on blood agar plates supplemented with 5% (V/V) horse blood and placed in an anaerobic chamber at 37° C. for two days. The number of each colony type was counted and calculated. […] This treatment regime is therefore an effective, quick, conservative and simple method to kill micro-organisms in primary root carious lesions.

[3] = test system: Streptococcus sobrinus; TH 21; assay: Ozone on S. sobrinus on saliva coated glass beads; assay type: cell-based; details: 10 seconds of ozone on saliva coated glass beads
Excerpt: The aims of these studies were to evaluate the efficiency of ozone on primary root caries and associated micro-organisms (Streptococcus sobrinus; TH 21 Streptococcus mutans; NCTC 10449). In study 1, 40 soft primary root carious lesions (PRCLs) from freshly extracted teeth were used and randomly divided into two groups to test the exposure to ozone for either 10 or 20 seconds. There was a significant (p<0.001) difference (Mean±SE) between the control samples for either 10 seconds (log10 5.91±0.15) or 20 seconds (log10 6.18±0.21) and ozone treated samples for either 10 seconds (log10 3.57±0.37) or 20 seconds (log10 3.77±0.42). In study 2, 40 sterile saliva coated glass beads were put into bijoux bottles with 3 mls of Todd Hewitt broth for control and test groups. S. sobrinus and S. mutans were inoculated and incubated anaerobically overnight. Each glass bead was washed with 2 mls of PBS. Immediately, 10 seconds of ozone was applied to the glass beads in the test groups. Subsequently, each glass bead in the test and control groups was placed in 3 mls of Todd Hewitt broth with six more sterile glass beads and were vortexed for 30 seconds. After decimal dilutions, […] were spread on blood agar plates supplemented with 5% (V/V) horse blood and placed in an anaerobic chamber at 37° C. for two days. The number of each colony type was counted and calculated. […]

[4] = test system: Inflamed human gingivitis; assay: Effect of ozone on gum disease; assay type: in vivo; details: after exposure to ozone
Excerpt: Inflamed human gingivitis is exposed to ozone using the techniques herein described.

[5] = Ozone exposure of bacteria cultures (root canals); assay type: cell-based, Streptococcus aurous; details: exposed to ozone
Lactobacillus salivarius = assay: Ozone exposure of bacteria cultures (root canals); assay type: cell-based; details: exposed to ozone
[6] = test system: Lactobacillus acidophilus; assay: Ozone exposure of bacteria cultures (root canals); assay type: cell-based; details: exposed to ozone
Month ulcerations = assay: Effect of ozone in the treatment of mouth ulcerations; assay type: in vivo; details: exposed to ozone
[7] = test system: microorganisms associated with bad breath; assay: Effect of ozone in the treatment of bad breath; assay type: in vivo; details: mouth exposed to ozone
Excerpt: Bad breath is caused, in part, by the retention and subsequent degradation of dead cellular material, by microorganisms, sloughed off continuously by a normal, healthy mouth.

Compound: O=[O+][O-] [ozone]
- effect of O3 treatment on salivary 3-D-hydroxybutyrate [1]: evidence for the O3-mediated oxidation of salivary 3-D-hydroxybutyrate
- effect of O3 treatment on salivary methionine [1]: oxidation of the volatile sulphur compound precursor methionine to its corresponding sulphoxide
- effect of O3 treatment on salivary polyunsaturated fatty acids [1]: oxidative consumption of salivary polyunsaturated fatty acids
- effect of O3 treatment on salivary pyruvate [1]: oxidative decarboxylation of the salivary electron-donor pyruvate
- percentage of micro-organisms killed ([2]; 10 seconds of ozone treatment): more than 99%
- Mean ± SE of Total cfu (Log10) ([2]; soft PRCL of freshly extracted teeth): 3.57±0.37 Log10
- Mean ± SE of Total cfu (Log10) ([2]; soft PRCL of freshly extracted teeth, listed as Ozone): 3.57 ± 0.37 Log10
- Total cfu, log10, mean±SE ([2]; after 20 seconds of ozone treatment, soft PRCL of freshly extracted teeth): 3.77±0.42 log10
- colony count, log10, Mean±SE [3]: 1.09±0.36 log10
- enzyme levels in extracts from inflamed human gingiva [4]: alleviated and/or reduced
- growth of the bacteria cultures [5]: eliminated or inhibited
- growth of the bacteria cultures (Lactobacillus salivarius): eliminated or inhibited
- growth of the bacteria cultures [6]: eliminated or inhibited
- enzyme levels in the month ulcerations (Month ulcerations): alleviated and/or reduced
- microorganisms in the ulceration (Month ulcerations): eliminated or reduced
- enzyme levels in the month [7]: alleviated and/or reduced
- microorganisms associated with bad breath [7]: eliminated or reduced

From patent US20060110710A1, “Endodontic ozone therapy” (priority 2001, published 2006)
